Data on 29 compounds can be found in patent US11457629B2, “Heteroarylphenylaminoquinolines and analogues” (Bayer Aktiengesellschaft, priority 2017, dated 2022).

Where two headings read alike, the source gives them in different places.

One data set relates to Leptnosphaeria nodorum. In words: Example D: Leptnosphaeria nodorum in vitro cell test. Format: cell-based. Conditions: 144 h, read-out: efficacy (inhibition of fungal growth).
The next data set concerns Pyricularia oryzae. In words: microbe, parasite or virus in culture. The class given is cell-based. The settings on record: 120 h, read-out: efficacy (inhibition of fungal growth).
The nature of data set [1]: Log P by HPLC on reversed phase columns, method [a] (acidic range, 0.1% formic acid).
Experimental: In the following, measurement of Log P values was performed according to EEC directive 79/831 Annex V.A8 by HPLC (High Performance Liquid Chromatography) on reversed phase columns with the following methods: • ^[a]
If more than one Log P value is available within the same method, all the values are given and separated by “+”.
Calibration was done with straight-chain alkan2-ones (with 3 to 16 carbon atoms) with known Log P values (measurement of Log P values using retention times with linear interpolation between successive alkanones).
The mark [2] stands for this setting: logP, HPLC on reversed phase columns, method [a]: acidic range.
[3] abbreviates: LogP, method [a] / Method A: LC-UV, acidic range.

For orientation: inhibition means the change of the read-out against control, counted positive when it falls. The chromatographic logP is lipophilicity estimated from chromatographic retention. A high value points to higher lipophilicity. As to `Cc1nc2c(F)c(F)ccc2cc1Nc1ccccc1-c1ccn(C(C)C)n1` [Example I-043, 7,8-difluoro-N-[2-(1-isopropylpyrazol-3-yl)phenyl]-2-methyl-quinolin-3-amine], the inhibition at 20 ppm in the data set with Leptnosphaeria nodorum fell in the range of 80 to 89%; with Pyricularia oryzae, 90 to 100%. This compound showed a chromatographic logP in data set [1] (setting [2]) of 5.
Take `Cc1nc2c(F)c(F)ccc2cc1N(C)c1ccccc1-c1ccn(C(C)C)n1` [Example I-046, 7,8-difluoro-N-[2-(1-isopropylpyrazol-3-yl)phenyl]-N,2-dimethyl-quinolin-3-amine]: in the data set with Pyricularia oryzae, the inhibition at 20 ppm lay within 80 to 89%. Also, the chromatographic logP in data set [1] (setting [3]) and in data set [1] (setting [2]) was 4.36 throughout.
As to `COC(=O)c1ccn(-c2ccccc2Nc2cnc3ccccc3c2)n1` [Example I-062, methyl 1-[2-(3-quinolylamino)phenyl]pyrazole-3-carboxylate], the chromatographic logP in data set [1] (setting [3]) and in data set [1] (setting [2]) was 2.16 throughout.
`CC(C)(C)[Si](C)(C)OCc1ccnn1-c1ccccc1Nc1cnc2ccccc2c1` [Example I-069, N-{2-[5-({[tert-butyl(dimethyl)silyl]oxy}methyl)-1H-pyrazol-1-yl]phenyl}quinolin-3-amine]: the inhibition at 20 ppm with Leptnosphaeria nodorum (20 ppm of active ingredient, 6 days incubation) lay within 80 to 89%. For the same compound, the chromatographic logP in data set [1] (setting [3]) and in data set [1] (setting [2]) was 4.92 in each case.
As to `Cn1nccc1-c1c(F)cccc1Br` [IXa-01, 5-(2-bromo-6-fluorophenyl)-1-methyl-1H-pyrazole], the chromatographic logP in data set [1] (setting [3]) came out at 2.4.
In data set [1] (setting [3]), `CC(C)n1nccc1-c1c(F)cccc1Br` [IXa-02, 5-(2-bromo-6-fluorophenyl)-1-isopropyl-1H-pyrazole] gave a chromatographic logP of 3.09.
Take `CC(C)(C)n1nccc1-c1c(F)cccc1Br` [IXa-03, 5-(2-bromo-6-fluorophenyl)-1-tert-butyl-1H-pyrazole]: the chromatographic logP in data set [1] (setting [3]) is 3.61.
The same measure, in the same setting: under `CCn1nccc1-c1c(F)cccc1Br` [IXa-04, 5-(2-bromo-6-fluorophenyl)-1-ethyl-1H-pyrazole] stands 2.71; under `Fc1cccc(Br)c1-c1ccnn1CCc1ccccc1` [IXa-05, 5-(2-bromo-6-fluorophenyl)-1-(2-phenylethyl)-1H-pyrazole], 3.83; under `OCc1ccnn1-c1c(F)cccc1Br` [IXb-01, [1-(2-bromo-6-fluorophenyl)-1H-pyrazol-5-yl]methanol], 1.27.
In data set [1] (setting [3]), `CC(C)(C)[Si](C)(C)OCc1ccnn1-c1c(F)cccc1Br` [IXb-02, 1-(2-bromo-6-fluorophenyl)-5-({[tert-butyl(dimethyl)silyl]oxy}methyl)-1H-pyrazole] displayed a chromatographic logP of 4.96.
Same read-out and setting: under `COC(=O)c1ccnn1-c1c(F)cccc1Br` [IXb-03, methyl 1-(2-bromo-6-fluorophenyl)-1H-pyrazole-5-carboxylate] stands 2.53; under `CC(C)(C)[Si](C)(C)OCc1ccnn1-c1c(N)cccc1F` [IXb-04, 2-[5-({[tert-butyl(dimethyl)silyl]oxy}methyl)-1H-pyrazol-1-yl]-3-fluoroaniline], 4.1.
`Fc1cccc2cc(Nc3ccccc3Br)cnc12` [N-(2-bromophenyl)-8-fluoro-quinolin-3-amine] registered a chromatographic logP in data set [1] (setting [3]) of 3.27.
Turning to `CC1(C)OB(c2ccccc2Nc2cnc3c(F)cccc3c2)OC1(C)C` [VI-01, 8-fluoro-N-[2-(4,4,5,5-tetramethyl-1,3,2-dioxaborolan-2-yl)phenyl]quinolin-3-amine], the chromatographic logP in data set [1] (setting [3]) came to 4.87.
With `CC1(C)OB(c2ccccc2Nc2cnc3ccccc3c2)OC1(C)C` [VI-02, N-[2-(4,4,5,5-tetramethyl-1,3,2-dioxaborolan-2-yl)phenyl]quinolin-3-amine], the chromatographic logP in data set [1] (setting [3]) was 4.29.
Still for that read-out and setting: under `CC1(C)OB(c2ccccc2Cc2cnc3ccccc3c2)OC1(C)C` [VI-03, 3-[2-(4,4,5,5-tetramethyl-1,3,2-dioxaborolan-2-yl)benzyl]quinoline] stands 3.39; under `CC(C)(C)OC(=O)N(c1cnc2ccccc2c1)c1ccccc1-n1nccc1C(=O)O` [XX-01, 1-{2-[(tert-butoxycarbonyl)(quinolin-3-yl)amino]phenyl}-1H-pyrazole-5-carboxylic acid], 2.42; under `CC(C)(C)OC(=O)N(c1cnc2ccccc2c1)c1cccc(F)c1-n1nccc1C(=O)O` [XX-02, 1-{2-[(tert-butoxycarbonyl)(quinolin-3-yl)amino]-6-fluorophenyl}-1H-pyrazole-5-carboxylic acid], 2.62.
The same measure, in the same setting: under `COC(=O)c1ccnn1-c1c(F)cccc1N(C(=O)OC(C)(C)C)c1cnc2ccccc2c1` [XX-03, methyl 1-{2-[(tert-butoxycarbonyl)(quinolin-3-yl)amino]-6-fluorophenyl}-1H-pyrazole-5-carboxylate] stands 3.36; under `C=C(C)c1ccnn1-c1ccccc1N(C(=O)OC(C)(C)C)c1cnc2ccccc2c1` [XX-04, tert-butyl {2-[5-(prop-1-en-2-yl)-1H-pyrazol-1-yl]phenyl}quinolin-3-ylcarbamate], 3.67; under `COC(=O)c1ccnn1-c1ccccc1N(C(=O)OC(C)(C)C)c1cnc2ccccc2c1` [XX-05, Methyl 1-(2-(tert-butoxycarbonyl(quinolin-3-yl)amino)phenyl)-1H-pyrazole-5-carboxylate], 3.19.
On the same count and under the same terms, then `CC(C)(C)OC(=O)N(c1cnc2ccccc2c1)c1ccccc1-n1nccc1C=O` [XX-06, tert-butyl [2-(5-formyl-1H-pyrazol-1-yl)phenyl]quinolin-3-ylcarbamate], with 3.06; and `CC(C)(C)OC(=O)N(c1cnc2ccccc2c1)c1ccccc1-n1nccc1CO[Si](C)(C)C(C)(C)C` [XX-07, tert-butyl {2-[5-({[tert-butyl(dimethyl)silyl]oxy}methyl)-1H-pyrazol-1-yl]phenyl}quinolin-3-ylcarbamate], with 5.84.
On to `CC(C)(C)OC(=O)N(c1cnc2ccccc2c1)c1cccc(F)c1-n1nccc1CO` [XX-08, tert-butyl {3-fluoro-2-[5-(hydroxymethyl)-1H-pyrazol-1-yl]phenyl}quinolin-3-ylcarbamate], for which the chromatographic logP in data set [1] (setting [3]) was 2.47.
The compound `CC(C)(C)OC(=O)N(c1cnc2ccccc2c1)c1cccc(F)c1-n1nccc1CO[Si](C)(C)C(C)(C)C` [XX-09, tert-butyl {2-[5-({[tert-butyl(dimethyl)silyl]oxy}methyl)-1H-pyrazol-1-yl]-3-fluorophenyl}quinolin-3-ylcarbamate] came in with a chromatographic logP in data set [1] (setting [3]) of 5.8.
The same measure, in the same setting: under `CC(C)(C)OC(=O)N(c1cnc2ccccc2c1)c1cccc(F)c1-n1nccc1C=O` [XX-10, tert-butyl [3-fluoro-2-(5-formyl-1H-pyrazol-1-yl)phenyl]quinolin-3-ylcarbamate] stands 3.24; under `CC(C)(C)OC(=O)N(c1cnc2ccccc2c1)c1cccc(F)c1-n1nccc1C(C)(C)O` [XX-11, tert-butyl {3-fluoro-2-[5-(2-hydroxypropan-2-yl)-1H-pyrazol-1-yl]phenyl}quinolin-3-ylcarbamate], 3.33; under `CC(C)(C)OC(=O)N(c1cnc2ccccc2c1)c1ccccc1-n1nccc1CO` [XX-12, tert-butyl {2-[5-(hydroxymethyl)-1H-pyrazol-1-yl]phenyl}quinolin-3-ylcarbamate], 2.35.
